# Measurements from paper PMC4971072, “Chemically Homogenous Compounds with Antagonistic Properties at All α1-Adrenoceptor Subtypes but not β1-Adrenoceptor Attenuate Adrenaline-Induced Arrhythmia in Rats” (Frontiers in Pharmacology, 2016).
# Marks after values point to notes of the source that are not given here.
# Key:
# α1B-adrenoceptors = target: T1, α1B-adrenoceptors (Mus musculus, UniProt P97717); assay: Functional bioassay, isolated mouse spleen, noradrenaline contraction; format: biochemical; conditions: noradrenaline as agonist
# T1 construct: The spleen was removed from male mice; from tissue; host or cells: isolated mouse spleen
# T1 sequence (P97717 1-514): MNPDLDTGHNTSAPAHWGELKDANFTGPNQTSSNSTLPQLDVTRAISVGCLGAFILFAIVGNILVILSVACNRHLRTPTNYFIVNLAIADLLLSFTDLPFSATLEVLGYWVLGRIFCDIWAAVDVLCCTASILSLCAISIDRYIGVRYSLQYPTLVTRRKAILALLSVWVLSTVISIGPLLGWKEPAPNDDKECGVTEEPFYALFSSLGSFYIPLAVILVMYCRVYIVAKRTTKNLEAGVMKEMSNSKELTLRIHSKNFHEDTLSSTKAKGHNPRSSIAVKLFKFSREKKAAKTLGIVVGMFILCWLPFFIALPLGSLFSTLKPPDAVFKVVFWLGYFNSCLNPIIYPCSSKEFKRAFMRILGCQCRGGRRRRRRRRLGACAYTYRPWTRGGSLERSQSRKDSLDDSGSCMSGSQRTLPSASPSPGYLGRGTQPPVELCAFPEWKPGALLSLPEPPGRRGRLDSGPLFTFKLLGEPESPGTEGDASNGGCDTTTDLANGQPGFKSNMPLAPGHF
# Experimental: The influence on α1B-adrenoceptors was evaluated using the isolated mouse spleen. The spleen was removed from male mice right after killing the anesthetized animal by cervical dislocation. […] The initial optimal tissues tension was set at 1.0 g. Through the 100 min of equilibration tissues were stimulated with noradrenaline (0.1−10.0 μM) three times with washing out until the contractile response become constant. Two cumulative concentration-response curves to noradrenaline, at an interval of 60 min, were established on each tissue both in the presence and absence of antagonist. The incubation with antagonists went on for 30 min. The experiments were carried out in the constant presence of propranolol (1 μM) to block β-adrenoceptors, and minimize the involvement of these adrenoceptors in the response to noradrenaline.
# Data are means ± S.E.M. of at least 4 separate experiments. To establish Hill slopes for the agonist concentration–response curves and calculate EC50 values, curves were fitted to all the data by non-linear regression. The EC50 value in the presence and absence of antagonists was used to ascertain the concentration ratio (CR). Schild analysis was performed.
# [1] = system: blood pressure in normotensive rats; assay: Influence on blood pressure in normotensive rats; format: in vivo, rat; design: Systolic pressure / Diastolic pressure: unit not given beside the values; conditions: for Diastolic pressure / Systolic pressure: anesthetized normotensive rats
# Experimental: The tested compounds were administered i.p. after 15 min of stabilization period. The compounds were administered at the dose 10 mg/kg.
# normal ECG in rats = assay: The effect on normal electrocardiogram in rats; format: in vivo, rat; conditions: anesthetized rats, i.p. at ED84
# Experimental: The experiment was carried out to exclude the influence of tested compounds on normal ECG. […] The influence on QRS complex, PQ interval, heart rate (RR), and QTc interval was determined.
# [2] = lowest hypotensive dose i.p., 5 min
# [3] = lowest hypotensive dose i.p., 10 min
# [4] = lowest hypotensive dose i.p., 20 min
# [5] = lowest hypotensive dose i.p., 30 min
# [6] = lowest hypotensive dose i.p., 40 min
# [7] = lowest hypotensive dose i.p., 50 min
# [8] = lowest hypotensive dose i.p., 60 min
# [9] = lowest hypotensive dose i.p., Control (before administration)
# [10] = normotensive rats, lowest hypotensive dose i.p., period of significant effect
smiles,measurement,setting,value
"COc1ccccc1N1CCN(CCOCCOc2c(C)cccc2Cl)CC1.Cl [HBK-15, 1-[(2-chloro-6-methylphenoxy)ethoxyethyl]-4-(2-methoxyphenyl)piperazine hydrochloride]","Schild slope ± S.E.M., α1B",α1B-adrenoceptors,0.96 ± 0.01
same,Kb,"α1B-adrenoceptors; read-out: pA2 ± S.E.M., α1B (converted)",21.4 nM
same,Diastolic pressure,[1]; [2],96.3 ± 3.7^c
same,Systolic pressure,[1]; [2],121.2 ± 4.8^c
same,Diastolic pressure,[1]; [3],92.0 ± 4.3^c
same,Systolic pressure,[1]; [3],116.3 ± 6.0^c
same,Diastolic pressure,[1]; [4],88.5 ± 3.5^c
same,Systolic pressure,[1]; [4],112.0 ± 5.5^c
same,Diastolic pressure,[1]; [5],88.3 ± 2.9^c
same,Systolic pressure,[1]; [5],112.2 ± 4.2^c
same,Diastolic pressure,[1]; [6],91.0 ± 3.2^c
same,Systolic pressure,[1]; [6],112.5 ± 4.4^c
same,Diastolic pressure,[1]; [7],90.2 ± 2.7^c
same,Systolic pressure,[1]; [7],113.2 ± 3.7^c
same,Diastolic pressure,[1]; [8],93.0 ± 1.2^c
same,Systolic pressure,[1]; [8],117.3 ± 3.0^c
same,Diastolic pressure,[1]; [9],110.3 ± 2.2
same,Systolic pressure,[1]; [9],139.0 ± 2.7
same,lowest hypotensive dose,"[1]; normotensive rats, lowest dose significantly lowering systolic and diastolic blood pressure",5.0 mg/kg
same,reduction of diastolic blood pressure,[1]; [10],13−20%
same,reduction of systolic blood pressure,[1]; [10],13−19%
same,"influence on ECG parameters (PQ interval, QRS complex, QTc interval)",normal ECG in rats,did not influence the ECG parameters
same,Beats/min (ECG),normal ECG in rats; 0 min (initial values),353.8 ± 10.2 Beats/min
same,PQ (ECG),normal ECG in rats; 0 min (initial values),48.7 ± 1.0 ms
same,QRS (ECG),normal ECG in rats; 0 min (initial values),25.7 ± 0.7 ms
same,QT (ECG),normal ECG in rats; 0 min (initial values),87.3 ± 1.4 ms
same,"QTc (ECG, Bazett)",normal ECG in rats; 0 min (initial values),212.0 ± 5.0 ms
same,Beats/min (ECG),normal ECG in rats; 5 min,365.4 ± 15.3 Beats/min
same,PQ (ECG),normal ECG in rats; 5 min,48.4 ± 0.5 ms
same,QRS (ECG),normal ECG in rats; 5 min,26.3 ± 0.9 ms
same,QT (ECG),normal ECG in rats; 5 min,86.5 ± 1.3 ms
same,"QTc (ECG, Bazett)",normal ECG in rats; 5 min,213.6 ± 7.0 ms
same,Beats/min (ECG),normal ECG in rats; 10 min,350.8 ± 10.5 Beats/min
same,PQ (ECG),normal ECG in rats; 10 min,48.2 ± 1.0 ms
same,QRS (ECG),normal ECG in rats; 10 min,26.1 ± 1.1 ms
same,QT (ECG),normal ECG in rats; 10 min,87.2 ± 2.0 ms
same,"QTc (ECG, Bazett)",normal ECG in rats; 10 min,211.3 ± 6.2 ms
same,Beats/min (ECG),normal ECG in rats; 15 min,333.9 ± 12.4 Beats/min
same,PQ (ECG),normal ECG in rats; 15 min,46.6 ± 0.9 ms
same,QRS (ECG),normal ECG in rats; 15 min,25.6 ± 1.2 ms
same,QT (ECG),normal ECG in rats; 15 min,87.5 ± 2.0 ms
same,"QTc (ECG, Bazett)",normal ECG in rats; 15 min,207.1 ± 6.8 ms
same,Beats/min (ECG),normal ECG in rats; 20 min,327.6 ± 20.3 Beats/min
same,PQ (ECG),normal ECG in rats; 20 min,47.6 ± 0.5 ms
same,QRS (ECG),normal ECG in rats; 20 min,26.3 ± 0.5 ms
same,QT (ECG),normal ECG in rats; 20 min,87.2 ± 0.6 ms
same,"QTc (ECG, Bazett)",normal ECG in rats; 20 min,203.7 ± 7.2 ms
same,Beats/min (ECG),normal ECG in rats; 30 min,340.1 ± 17.7 Beats/min
same,PQ (ECG),normal ECG in rats; 30 min,46.1 ± 0.3 ms
same,QRS (ECG),normal ECG in rats; 30 min,26.4 ± 0.9 ms
same,QT (ECG),normal ECG in rats; 30 min,86.7 ± 1.1 ms
same,"QTc (ECG, Bazett)",normal ECG in rats; 30 min,206.4 ± 7.9 ms
same,Beats/min (ECG),normal ECG in rats; 40 min,339.5 ± 20.4 Beats/min
same,PQ (ECG),normal ECG in rats; 40 min,46.1 ± 0.7 ms
same,QRS (ECG),normal ECG in rats; 40 min,28.0 ± 0.9 ms
same,QT (ECG),normal ECG in rats; 40 min,87.0 ± 1.5 ms
same,"QTc (ECG, Bazett)",normal ECG in rats; 40 min,206.5 ± 6.6 ms
same,Beats/min (ECG),normal ECG in rats; 50 min,350.1 ± 17.9 Beats/min
same,PQ (ECG),normal ECG in rats; 50 min,47.5 ± 0.7 ms
same,QRS (ECG),normal ECG in rats; 50 min,26.1 ± 1.2 ms
same,QT (ECG),normal ECG in rats; 50 min,88.2 ± 0.8 ms
same,"QTc (ECG, Bazett)",normal ECG in rats; 50 min,212.7 ± 6.9 ms
same,Beats/min (ECG),normal ECG in rats; 60 min,351.8 ± 15.0 Beats/min
same,PQ (ECG),normal ECG in rats; 60 min,48.0 ± 1.1 ms
same,QRS (ECG),normal ECG in rats; 60 min,26.3 ± 0.5 ms
same,QT (ECG),normal ECG in rats; 60 min,88.5 ± 2.2 ms
same,"QTc (ECG, Bazett)",normal ECG in rats; 60 min,213.9 ± 7.2 ms
